Organism: Rattus norvegicus
Test: Open TG-GATES - Regimen: Single
Format: toxicity, organism-based, Sprague-Dawley
Parameters: regimen Single, gender Male, age 6 weeks
Conditions: in vivo, po, 50 mg/kg, route gavage, dose level Low; for APTT / Bas / Eos / Fbg / Hb / Ht / Lym / MCH / MCHC / MCV / Mono / Neu / PT / Plat / RBC / Ret / WBC: tissue Blood; for KIDNEY_L / KIDNEY_R / KIDNEY_TOTAL: tissue Kidney; for LIVER: tissue Liver; for A/G / ALP / ALT / AST / BUN / CRE / Ca / Cl / DBIL / GLC / IP / K / LDH / Na / PL / RALB / TBIL / TC / TG / TP / gamma-GTP: tissue Plasma

CN1C(=O)OC(C)(C)C1=O [TRIMETHADIONE] was tested, and the TERMINAL_BW (3 h) was 208.1 g, the APTT (3 h) was 16.8 s and the Bas (3 h) was 0%. The Eos (3 h) was 0.8%, the Fbg (3 h) was 278 mg/dL and the Hb (3 h) was 13.4 g/dL. For the same compound, the Ht (3 h) was 40.2%, the Lym (3 h) was 78.4% and the MCH (3 h) was 21.3 pg. The MCHC (3 h) was 33.3%, the MCV (3 h) was 64 fL and the Mono (3 h) was 3%. For the same compound, the Neu (3 h) was 17.4%, the PT (3 h) was 13.8 s and the Plat (3 h) was 129 x10_4/uL. For the same compound, the RBC (3 h) was 628.4 x10_4/ul, the Ret (3 h) was 8.1% and the WBC (3 h) was 86.2 x10_2/uL. It also gave a KIDNEY_L (3 h) of 0.9 g, a KIDNEY_R (3 h) of 0.9 g and a KIDNEY_TOTAL (3 h) of 1.8 g. The LIVER (3 h) was 9.6 g, the A/G (3 h) was 0.9 and the ALP (3 h) was 1564.2 IU/L. The ALT (3 h) was 42.6 IU/L, the AST (3 h) was 80.4 IU/L and the BUN (3 h) was 10.4 mg/dL. The CRE (3 h) was 0.2 mg/dL, the Ca (3 h) was 10.6 mg/dL and the Cl (3 h) was 108.2 meq/L. It also gave a DBIL (3 h) of 0.006 mg/dL, a GLC (3 h) of 180.8 mg/dL and an IP (3 h) of 8.7 mg/dL. The K (3 h) was 4.1 meq/L, the LDH (3 h) was 133.8 IU/L and the Na (3 h) was 141.4 meq/L. It also gave a PL (3 h) of 146.8 mg/dL, an RALB (3 h) of 2.5 g/dL and a TBIL (3 h) of 0.064 mg/dL. For the same compound, the TC (3 h) was 76.4 mg/dL, the TG (3 h) was 77.8 mg/dL and the TP (3 h) was 5.4 g/dL. The gamma-GTP (3 h) was 1.6 IU/L, the TERMINAL_BW (6 h) was 207.4 g and the APTT (6 h) was 17 s. For the same compound, the Bas (6 h) was 0%, the Eos (6 h) was 1% and the Fbg (6 h) was 268.2 mg/dL. For the same compound, the Hb (6 h) was 13.5 g/dL, the Ht (6 h) was 40.5% and the Lym (6 h) was 78.6%. It also gave an MCH (6 h) of 21.6 pg, an MCHC (6 h) of 33.2% and an MCV (6 h) of 64.9 fL. It also gave a Mono (6 h) of 2.4%, a Neu (6 h) of 17.2% and a PT (6 h) of 13.7 s. The Plat (6 h) was 120 x10_4/uL, the RBC (6 h) was 625.4 x10_4/ul and the Ret (6 h) was 8%. The WBC (6 h) was 71.3 x10_2/uL, the KIDNEY_L (6 h) was 0.9 g and the KIDNEY_R (6 h) was 0.9 g. For the same compound, the KIDNEY_TOTAL (6 h) was 1.9 g, the LIVER (6 h) was 8.6 g and the A/G (6 h) was 0.9. It also gave an ALP (6 h) of 1854.2 IU/L, an ALT (6 h) of 39.8 IU/L and an AST (6 h) of 79.8 IU/L. For the same compound, the BUN (6 h) was 10.8 mg/dL, the CRE (6 h) was 0.2 mg/dL and the Ca (6 h) was 10.7 mg/dL. The Cl (6 h) was 108 meq/L, the DBIL (6 h) was 0.004 mg/dL and the GLC (6 h) was 185.6 mg/dL. It also gave an IP (6 h) of 8.9 mg/dL, a K (6 h) of 4.2 meq/L and an LDH (6 h) of 130.4 IU/L. For the same compound, the Na (6 h) was 140.8 meq/L, the PL (6 h) was 139.4 mg/dL and the RALB (6 h) was 2.5 g/dL. It also gave a TBIL (6 h) of 0.06 mg/dL, a TC (6 h) of 77.2 mg/dL and a TG (6 h) of 54.4 mg/dL. For the same compound, the TP (6 h) was 5.3 g/dL and the gamma-GTP (6 h) was 1.2 IU/L.
